Where “and” joins values, the source holds several entries; their conditions need not be identical. Identical values can stand only once.
Assays:
Assay in all cases: radiometric filter-binding kinase assay, Kinase HotSpot
Details in all cases: compound 0.5 µM; ATP 10 µM
ACVR1 (human) = ACVR1 (human) (UniProt Q04771)
BLK (human) = BLK (human) (UniProt P51451)
CAMK2D (human) = CAMK2D (human) (UniProt Q13557)
CDK3 CCNE1 (human) = CDK3 CCNE1 (human) (UniProt Q00526+P24864)
CDK4 CCND1 (human) = CDK4 CCND1 (human) (UniProt P24385+P11802)
CDK6 CCND1 (human) = CDK6 CCND1 (human) (UniProt Q00534+P24385)
CHEK1 (human) = CHEK1 (human) (UniProt O14757)
CHUK (human) = CHUK (human) (UniProt O15111)
CLK1 (human) = CLK1 (human) (UniProt P49759)
CLK2 (human) = CLK2 (human) (UniProt P49760)
CSNK1G2 (human) = CSNK1G2 (human) (UniProt P78368)
EPHA3 (human) = EPHA3 (human) (UniProt P29320)
FES (human) = FES (human) (UniProt P07332)
FGR (human) = FGR (human) (UniProt P09769)
FYN (human) = FYN (human) (UniProt P06241)
HCK (human) = HCK (human) (UniProt P08631)
HIPK4 (human) = HIPK4 (human) (UniProt Q8NE63)
LCK (human) = LCK (human) (UniProt P06239)
LTK (human) = LTK (human) (UniProt P29376)
MAP3K9 (human) = MAP3K9 (human) (UniProt P80192)
MAP4K4 (human) = MAP4K4 (human) (UniProt O95819)
MAPK10 (human) = MAPK10 (human) (UniProt P53779)
MAPK9 (human) = MAPK9 (human) (UniProt P45984)
MATK (human) = MATK (human) (UniProt P42679)
MELK (human) = MELK (human) (UniProt Q14680)
MERTK (human) = MERTK (human) (UniProt Q12866)
MYLK (human) = MYLK (human) (UniProt Q15746)
NEK6 (human) = NEK6 (human) (UniProt Q9HC98)
NLK (human) = NLK (human) (UniProt Q9UBE8)
PDGFRB (human) = PDGFRB (human) (UniProt P09619)
PKN1 (human) = PKN1 (human) (UniProt Q16512)
PRKCA (human) = PRKCA (human) (UniProt P17252)
PRKCB2 (human) = PRKCB2 (human) (UniProt P05771)
PRKG1 (human) = PRKG1 (human) (UniProt Q13976)
PTK2 (human) = PTK2 (human) (UniProt Q05397)
RPS6KA1 KD1 KD2 (human) = RPS6KA1 KD1 KD2 (human) (UniProt Q15418)
RPS6KA6 KD1 KD2 (human) = RPS6KA6 KD1 KD2 (human) (UniProt Q9UK32)
RPS6KB1 (human) = RPS6KB1 (human) (UniProt P23443)
TEC (human) = TEC (human) (UniProt P42680)
TNK2 (human) = TNK2 (human) (UniProt Q07912)
ULK2 (human) = ULK2 (human) (UniProt Q8IYT8)
WNK2 (human) = WNK2 (human) (UniProt Q9Y3S1)

Sequence of PRKG1 (human) (Q13976 whole entry, looked up): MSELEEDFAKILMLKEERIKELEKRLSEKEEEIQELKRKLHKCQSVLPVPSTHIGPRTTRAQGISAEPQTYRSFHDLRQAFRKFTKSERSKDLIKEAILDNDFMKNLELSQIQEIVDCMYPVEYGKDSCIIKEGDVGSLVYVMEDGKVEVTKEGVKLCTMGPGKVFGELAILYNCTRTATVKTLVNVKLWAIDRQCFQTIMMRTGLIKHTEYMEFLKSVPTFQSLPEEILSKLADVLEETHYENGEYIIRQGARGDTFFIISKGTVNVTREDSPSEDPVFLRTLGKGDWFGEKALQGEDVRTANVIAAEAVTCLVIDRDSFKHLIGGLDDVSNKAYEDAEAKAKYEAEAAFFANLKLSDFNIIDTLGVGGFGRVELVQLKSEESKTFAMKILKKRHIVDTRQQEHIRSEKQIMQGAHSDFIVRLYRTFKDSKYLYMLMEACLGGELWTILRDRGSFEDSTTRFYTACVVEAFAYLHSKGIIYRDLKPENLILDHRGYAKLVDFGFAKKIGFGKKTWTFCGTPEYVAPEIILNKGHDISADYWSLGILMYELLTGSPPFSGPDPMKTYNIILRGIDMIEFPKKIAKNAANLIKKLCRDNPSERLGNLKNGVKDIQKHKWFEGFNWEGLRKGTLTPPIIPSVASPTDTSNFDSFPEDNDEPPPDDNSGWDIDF
Sequence of MAPK10 (human) (P53779 whole entry, looked up): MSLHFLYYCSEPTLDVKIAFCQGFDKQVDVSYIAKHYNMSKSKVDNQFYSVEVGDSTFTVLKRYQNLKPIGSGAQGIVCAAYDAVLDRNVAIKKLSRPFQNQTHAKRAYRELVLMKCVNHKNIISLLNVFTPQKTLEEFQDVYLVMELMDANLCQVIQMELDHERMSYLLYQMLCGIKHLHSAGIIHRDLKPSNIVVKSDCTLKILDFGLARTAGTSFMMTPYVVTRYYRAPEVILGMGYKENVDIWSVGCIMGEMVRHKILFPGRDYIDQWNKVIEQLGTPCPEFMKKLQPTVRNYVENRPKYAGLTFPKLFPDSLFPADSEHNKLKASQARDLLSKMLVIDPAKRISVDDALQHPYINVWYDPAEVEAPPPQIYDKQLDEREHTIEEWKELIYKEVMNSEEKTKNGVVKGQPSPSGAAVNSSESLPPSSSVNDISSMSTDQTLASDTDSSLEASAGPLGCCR
Sequence of PTK2 (human) (Q05397 whole entry, looked up): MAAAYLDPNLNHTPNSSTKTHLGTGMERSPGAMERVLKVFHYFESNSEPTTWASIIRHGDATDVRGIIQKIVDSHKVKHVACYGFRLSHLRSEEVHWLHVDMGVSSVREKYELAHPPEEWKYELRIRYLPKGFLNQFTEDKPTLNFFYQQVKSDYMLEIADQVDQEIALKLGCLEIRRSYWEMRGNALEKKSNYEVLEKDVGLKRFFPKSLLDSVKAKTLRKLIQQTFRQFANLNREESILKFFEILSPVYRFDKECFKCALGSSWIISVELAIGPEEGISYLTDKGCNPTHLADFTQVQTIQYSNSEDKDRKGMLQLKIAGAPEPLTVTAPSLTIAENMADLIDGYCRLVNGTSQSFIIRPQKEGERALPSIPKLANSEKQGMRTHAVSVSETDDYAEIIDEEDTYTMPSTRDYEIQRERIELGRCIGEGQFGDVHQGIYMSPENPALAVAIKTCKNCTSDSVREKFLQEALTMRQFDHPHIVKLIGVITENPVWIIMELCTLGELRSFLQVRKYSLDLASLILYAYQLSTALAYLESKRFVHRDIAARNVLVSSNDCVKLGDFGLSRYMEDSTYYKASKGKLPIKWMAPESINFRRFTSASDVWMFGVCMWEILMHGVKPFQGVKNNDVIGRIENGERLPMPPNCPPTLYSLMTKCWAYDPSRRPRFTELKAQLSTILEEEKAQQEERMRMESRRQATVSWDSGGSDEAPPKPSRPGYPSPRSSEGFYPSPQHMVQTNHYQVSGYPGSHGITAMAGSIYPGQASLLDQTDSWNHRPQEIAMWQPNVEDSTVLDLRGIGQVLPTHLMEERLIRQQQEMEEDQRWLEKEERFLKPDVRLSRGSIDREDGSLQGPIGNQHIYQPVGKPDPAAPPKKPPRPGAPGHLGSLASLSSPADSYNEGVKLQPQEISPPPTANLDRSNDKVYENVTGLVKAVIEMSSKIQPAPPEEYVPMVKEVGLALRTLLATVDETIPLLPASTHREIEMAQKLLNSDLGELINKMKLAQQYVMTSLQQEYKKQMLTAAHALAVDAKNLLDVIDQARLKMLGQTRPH
Sequence of CDK4 CCND1 (human) (P11802 whole entry, looked up): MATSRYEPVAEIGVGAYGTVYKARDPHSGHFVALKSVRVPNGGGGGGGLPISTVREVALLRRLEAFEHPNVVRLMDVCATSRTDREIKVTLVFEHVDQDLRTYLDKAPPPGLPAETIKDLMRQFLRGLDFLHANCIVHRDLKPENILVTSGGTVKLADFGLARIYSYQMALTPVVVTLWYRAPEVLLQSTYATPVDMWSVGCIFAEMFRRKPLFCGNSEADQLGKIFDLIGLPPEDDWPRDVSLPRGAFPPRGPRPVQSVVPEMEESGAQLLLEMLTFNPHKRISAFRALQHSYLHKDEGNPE
Sequence of CDK4 CCND1 (human) (P24385 whole entry, looked up): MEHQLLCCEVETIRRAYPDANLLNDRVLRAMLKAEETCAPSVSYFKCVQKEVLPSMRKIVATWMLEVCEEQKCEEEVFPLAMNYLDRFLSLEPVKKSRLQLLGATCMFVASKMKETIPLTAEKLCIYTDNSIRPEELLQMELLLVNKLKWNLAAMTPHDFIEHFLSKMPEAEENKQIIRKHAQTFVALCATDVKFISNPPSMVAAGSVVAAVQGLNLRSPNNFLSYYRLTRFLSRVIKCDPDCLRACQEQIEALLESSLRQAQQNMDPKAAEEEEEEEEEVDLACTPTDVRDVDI
Sequence of HIPK4 (human) (Q8NE63 whole entry, looked up): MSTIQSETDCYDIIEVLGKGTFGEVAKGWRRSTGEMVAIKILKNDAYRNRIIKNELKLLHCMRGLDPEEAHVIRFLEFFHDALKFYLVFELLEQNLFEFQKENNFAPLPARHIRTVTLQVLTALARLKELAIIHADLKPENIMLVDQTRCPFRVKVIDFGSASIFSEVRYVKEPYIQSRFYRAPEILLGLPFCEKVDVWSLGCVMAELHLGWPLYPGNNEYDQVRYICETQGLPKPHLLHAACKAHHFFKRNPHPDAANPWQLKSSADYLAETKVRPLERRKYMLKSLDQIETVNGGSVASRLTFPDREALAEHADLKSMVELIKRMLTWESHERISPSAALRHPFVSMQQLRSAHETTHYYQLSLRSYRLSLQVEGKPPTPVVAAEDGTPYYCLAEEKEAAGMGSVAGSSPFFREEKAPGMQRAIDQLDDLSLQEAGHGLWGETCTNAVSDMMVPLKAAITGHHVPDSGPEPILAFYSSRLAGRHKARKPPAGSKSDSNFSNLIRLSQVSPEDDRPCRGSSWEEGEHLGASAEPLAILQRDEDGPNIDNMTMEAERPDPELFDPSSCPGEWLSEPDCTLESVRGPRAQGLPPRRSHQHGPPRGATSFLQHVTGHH
Sequence of CHUK (human) (O15111 whole entry, looked up): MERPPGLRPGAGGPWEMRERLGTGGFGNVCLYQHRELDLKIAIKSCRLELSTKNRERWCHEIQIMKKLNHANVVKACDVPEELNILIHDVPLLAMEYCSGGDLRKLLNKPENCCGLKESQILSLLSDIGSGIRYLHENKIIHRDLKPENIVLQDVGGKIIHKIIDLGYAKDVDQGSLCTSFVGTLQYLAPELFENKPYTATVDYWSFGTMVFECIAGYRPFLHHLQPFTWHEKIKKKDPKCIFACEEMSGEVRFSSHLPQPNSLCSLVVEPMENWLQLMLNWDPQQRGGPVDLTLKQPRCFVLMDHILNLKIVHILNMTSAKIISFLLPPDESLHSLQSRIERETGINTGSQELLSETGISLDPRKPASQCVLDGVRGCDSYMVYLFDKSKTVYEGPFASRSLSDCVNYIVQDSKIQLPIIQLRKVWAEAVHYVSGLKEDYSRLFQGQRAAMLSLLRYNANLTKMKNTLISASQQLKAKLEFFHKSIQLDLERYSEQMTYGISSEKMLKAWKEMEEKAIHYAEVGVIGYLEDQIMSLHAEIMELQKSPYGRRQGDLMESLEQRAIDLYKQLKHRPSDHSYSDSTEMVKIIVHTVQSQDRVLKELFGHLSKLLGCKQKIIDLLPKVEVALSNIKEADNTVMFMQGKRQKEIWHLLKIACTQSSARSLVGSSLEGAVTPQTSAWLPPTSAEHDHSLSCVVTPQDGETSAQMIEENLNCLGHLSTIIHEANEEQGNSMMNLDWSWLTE

SMILES: Cn1cnc2cc3c(Nc4cccc(Br)c4)ncnc3cc21
- residual activity (ACVR1 (human)): 109%
- residual activity (BLK (human)): 81%
- residual activity (CAMK2D (human)): 92.2%
- residual activity (CDK3 CCNE1 (human)): 92.5%
- residual activity (CDK4 CCND1 (human)): 84%
- residual activity (CDK6 CCND1 (human)): 107%
- residual activity (CHEK1 (human)): 113%
- residual activity (CHUK (human)): 89.7%
- residual activity (CLK1 (human)): 102%
- residual activity (CLK2 (human)): 93.9%
- residual activity (CSNK1G2 (human)): 89.2%
- residual activity (EPHA3 (human)): 82.9%
- residual activity (FES (human)): 101%
- residual activity (FGR (human)): 55.8%
- residual activity (FYN (human)): 85.9%
- residual activity (HCK (human)): 70.4%
- residual activity (HIPK4 (human)): 88.6%
- residual activity (LCK (human)): 47.7%
- residual activity (LTK (human)): 77.9%
- residual activity (MAP3K9 (human)): 79.8%
- residual activity (MAP4K4 (human)): 52.1%
- residual activity (MAPK10 (human)): 104%
- residual activity (MAPK9 (human)): 92.3%
- residual activity (MATK (human)): 85.9%
- residual activity (MELK (human)): 89%
- residual activity (MERTK (human)): 77.5%
- residual activity (MYLK (human)): 83.3%
- residual activity (NEK6 (human)): 98.1%
- residual activity (NLK (human)): 100%
- residual activity (PDGFRB (human)): 99.7%
- residual activity (PKN1 (human)): 89.1%
- residual activity (PRKCA (human)): 79%
- residual activity (PRKCB2 (human)): 95.4%
- residual activity (PRKG1 (human)): 97.8% and 98%
- residual activity (PTK2 (human)): 108%
- residual activity (RPS6KA1 KD1 KD2 (human)): 103%
- residual activity (RPS6KA6 KD1 KD2 (human)): 92.5%
- residual activity (RPS6KB1 (human)): 100%
- residual activity (TEC (human)): 123%
- residual activity (TNK2 (human)): 87.3%
- residual activity (ULK2 (human)): 74.8%
- residual activity (WNK2 (human)): 89.7%

SMILES: CN(C)C[C@H]1CCn2c(c(C3=C(c4cn(C)c5ccccc45)C(=O)NC3=O)c3ccccc32)C1
- residual activity (ACVR1 (human)): 93.3%
- residual activity (BLK (human)): 103%
- residual activity (CAMK2D (human)): 82.4%
- residual activity (CDK3 CCNE1 (human)): 62.4%
- residual activity (CDK4 CCND1 (human)): 86.9%
- residual activity (CDK6 CCND1 (human)): 70.5%
- residual activity (CHEK1 (human)): 69.8%
- residual activity (CHUK (human)): 103%
- residual activity (CLK1 (human)): 105%
- residual activity (CLK2 (human)): 85.9%
- residual activity (CSNK1G2 (human)): 97%
- residual activity (EPHA3 (human)): 99.2%
- residual activity (FES (human)): 102%
- residual activity (FGR (human)): 97.2%
- residual activity (FYN (human)): 92.8%
- residual activity (HCK (human)): 95.3%
- residual activity (HIPK4 (human)): 95.7%
- residual activity (LCK (human)): 96.5%
- residual activity (LTK (human)): 101%
- residual activity (MAP3K9 (human)): 90.8%
- residual activity (MAP4K4 (human)): 82.5%
- residual activity (MAPK10 (human)): 101%
- residual activity (MAPK9 (human)): 105%
- residual activity (MATK (human)): 95%
- residual activity (MELK (human)): 96.4%
- residual activity (MERTK (human)): 95.4%
- residual activity (MYLK (human)): 84%
- residual activity (NEK6 (human)): 94.6%
- residual activity (NLK (human)): 101%
- residual activity (PDGFRB (human)): 102%
- residual activity (PKN1 (human)): 7.06%
- residual activity (PRKCA (human)): 2.58%
- residual activity (PRKCB2 (human)): 2.29%
- residual activity (PRKG1 (human)): 81% and 88.8%
- residual activity (PTK2 (human)): 95.9%
- residual activity (RPS6KA1 KD1 KD2 (human)): 5.9%
- residual activity (RPS6KA6 KD1 KD2 (human)): 2.94%
- residual activity (RPS6KB1 (human)): 20%
- residual activity (TEC (human)): 108%
- residual activity (TNK2 (human)): 96.3%
- residual activity (ULK2 (human)): 105%
- residual activity (WNK2 (human)): 103%
